Experimental data taken from patent USRE37781E1, “Substituted cyclic carbonyls and derivatives thereof useful as retroviral protease inhibitors” (DuPont Pharmaceuticals Company, priority 1991, dated 2002).
In brackets after ≈: the same amount, converted by molar mass. Read-outs that look alike come from different tables or passages of the source.

What was measured:
[1] = Solubility studies; type: physicochemical
Experimental: For compounds of the present invention having reduceded water solubility it may be advantageous to prepare prodrugs to enhance the solubility and bioavailability of these compounds. […] Solubility studies were performed by mixing an excess of solid compound in water or aqueous medium for at least 4 hours. Solubility was assessed either visually, if a weighed amount clearly dissolved in a measured volume of solvent (method A), or by HPLC assay of filtrates of saturated solutions (method B).

[2] = test system: HIV-1 (RF) in MT-2 cells; test: microbe, parasite or virus in culture; type: cell-based; conditions: Human immunodeficiency virus 1, MT2, HIV RNA assay, HIV-1 infected MT-2 cells; class symbols; read-out: IC90
Summary of the method: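 Read-out: gag and pol viral RNA captured by 5′-biotinylated oligonucleotides on streptavidin-coated wells, detected with alkaline phosphatase-linked reporter oligonucleotides, calibrated against BH10 in vitro transcripts. Virus stocks (RF, MN, IIIB) come from H9 cultures; MT-2 host cells kept in RPMI 1640, 5% FCS.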

[3] = biological target: single-chain tethered dimer of HIV protease (Human immunodeficiency virus 1, UniProt P04585); test: biochemical; type: biochemical
[4] = test system: HIV-1 protease; test: HIV-1 Protease Transgenic Mouse Model (cataract phenotype); conditions: Tg 72 mouse
Experimental: The HIV protease inhibitory activity of the presently claimed compounds was measured in this animal system as a delay or prevention of the onset of cataract appearance in the test animals.
Plasmid Construction: The mammalian expression vector pMSG (Pharmacia) was modified by replacing the MMTV LTR promoter with the 412-bp Bgl II-BamHI mouse alpha A-cryatallin promoter fragment (Chepelinsky et al. Proc. Natl. Acad. Sci. USA, 1985, 82, 2334-2338). The SV40 early splice and polyadenylation signals were retained and this plasmid was renamed pCSV 19. A single chain, tethered dimeric form of the active HIV-1 protease gene (BAA; Cheng et al., Proc. Natl. Acad. Sci. USA, 1990, 87, 9660-9664 and Cheng et al., Gene, 1990, 87, 243-248) was modified for mammalian cell expression by replacing nucleotides 7 to 90 with [sequence]. The gene was cut with EcoRI and Hind III and after blunt-end repair cloned into the Sma I site of the pCSV 19, thus producing PCSV 19-BAA.
Construction of Transgenic Mice: 2.5 kb Hind III fragments from the pCSV 19-BAA and pCSV 19-BA*A* plasmids were isolated (modified from Sambrook at al., Molecular Cloning, A Laboratory Manual, 2nd Ed., 1989, Cold Spring Harbor Laboratory) and used for the construction of transgenic mice using the pronuclei injection method (Hogan et al., Manipulating the Mouse Embryo. A Laboratory Manual, 1986, Cold Spring Harbor Laboratory). Mice were screened for the HIV-1 protease transgene by either Southern blot or Polymerase Chain Reaction (PCR) methods. Mice of the FVB/N strain (Taketo et al., Proc. Natl. Acad Sci. USA, 1991, 88, 2065-2069) were used for the construction and breeding of these transgenic mice, and were originally obtained from Dr. Carl Hansen (NIH) and bred in our facility. Subsequently, the mice were purchased from Charles River Laboratory (Portage, Mich.).
Identification of Transgenic Mice: Southern blot analysis (Sambrook et al. vide supra) was performed on DNA purified from tail biopsies (Hogan et al. vide supra) using the 2.5 kb Hind III fragment from pCSV 19-BAA as the probe (^32P labeled). DNA for PCR was prepared from tail biopsies by overnight digestion with 0.5 mg of Proteinase K (Boehringer-Manheim GmbH) in 100 μl of water and 0.025% SDS. PCR primers specific for the mouse c-fos gene and the transgene's SV40 segment were used as an internal control in some samples. Each PCR reaction contained 1-2 μl of tail digest, 60 μg of each primer, 200 μM of Perkin Elmer Cetus dATP, dCTP, dGTP,TTP (buffered at pH 8.8) and up to 5 units of Perkin Elmer Cetus Ampli/Taq polymerase. The reactions were run on a Perkin Elmer DNA Thermal Cycler as follows: 1 min at 94° C., 3 min at 67° C. (2 sec extension/cycle) for 35 cycles. The PCR products were analyzed by gel electrophoresis (1% agarose,0.5 μg/ml of ethidium bromide), and tail samples with a 625 PCR fragment (SV40 specific) were considered positive for the transgene. Mice bearing the active HIV-1 protease transgene were also identified by their cataract phenotype.
Dosing Regimen: Compounds to be tested were pulverized by manual grinding with mortar and pestle. Just prior to dosing of mice, the compound was suspended in 0.25% methylcellulose/Tween 80 solution, homogenized in a manual Dounce homogenizer and sonicated for 10 min in a sonicating water bath. The volume of suspension was adjusted so that the amount of compound required for dosing one mouse was 0.1-0.2 mL. In order to maintain the required mg/kg dose, an average mouse weight for each group was determined twice a week and the amount of compound adjusted accordingly. Intraperitoneal (ip) and oral (po) dosing was performed using 25 G ⅝ in. injection and 20 G 1½ in. feeding needles, respectively. The dosing was performed twice a day (bid) and the doses were administered 6-8 h apart.

[5] = Oral bioavailability studies in fasted beagle dogs; type: in vivo; conditions: for bioavailability: beagle, dog, plasma, po, excipient glycol, read-out: % Oral Bioavailability of 5U (Mean ± SE)
Experimental: Improved water solubility can result in increasing the extent of oral bioavailability. Oral bioavailability studies were performed in fasted beagle dogs. Compounds were dosed orally using a solution vehicle or the solid drug powder filled into hard gelatin capsules. Periodic blood samples were taken from each dog and plasma was separated. Plasma drug concentrations were determined using extraction and HPLC analysis. Generally, after the administration of 5U or its prodrugs 29A-E, the plasma concentrations of 5U were determined, rather than unchanged prodrug concentrations. […] Oral bioavailability is expressed as the percentage of the oral dose absorbed. […] Therefore, in order to attain improved oral bioavailability, 5U was administered using a solution with polyethylene glycol 400 or propylene glycol as the vehicle. […] Improved oral bioavailability was attained when the water soluble prodrugs were administered in the solid form, with no added excipients or solvents. […] The advantage of the water soluble prodrugs is especially clear at high doses. […] Samples were then extracted again and assayed for 5U concentration. […] Thus, plasma levels of both intact prodrug and hydrolysis product can be attained using these water soluble prodrugs.

[6] = Hydrolysis of prodrugs to 5U in biological fluids in vitro; type: in vitro ADME; conditions: exposed to plasma or intestinal enzymes in vitro, 37° C.
Experimental: Compounds 29A-29E are hydrolyzed to parent compound 5U in biological fluids in vitro. This was shown as follows. Plasma was collected from rats, dogs, or human volunteer, and was used within 24 hours. […] After various times of incubation at 37° C., the hydrolysis reaction was quenched with the addition of an organic solvent. The organic solvent was used for extraction of 5U, and concentrations of 5U in the plasma aliquots were determined using HPLC after extraction. Concentrations of 5U were thus measured vs. time of incubation of the prodrug in plasma at 37° C. Similar studies were performed using a homogenate of rat intestinal tissue (10% w/v) as the hydrolysis medium. Results for in vitro hydrolysis of prodrug 29B in dog plasma and rat intestinal homogenate (10% w/v) are given in Table B. Results for in vitro hydrolysis of prodrug 29C in rat, dog and human plasma are given in Table C. […] Other salt forms of these compounds, such as prodrugs 29A and 29D, will be similar to their free acid or free base forms.

Solubility ([1]; 0.1M citric acid, method A (visually)) [µg/mL] | conversion of prodrug to parent 5U [6] | AUC of intact esters (total of mono and bis ester) relative to that of 5U ([5]; oral, plasma treated with NaOH) | Structure (SMILES) | Solubility ([1]; thermodynamic from solid, water, method B (HPLC assay of filtrates of saturated solutions), read-out: Solubility) [µg/mL] | IC90 [2] [µg/mL] | Ki [3] [nM] | Delay in Cataract (relative to control) ([4]; 100 mg/kg bid ip) [days] | Delay in Cataract (relative to control) ([4]; 400 mg/kg bid ip days 15-42) [days] | oral bioavailability ([5]; administered as the solid powder) | bioavailability ([5]; dose 40 mg/kg 5U eq.) [%] | bioavailability ([5]; dose 10-15 mg/kg 5U eq.) [%] | oral bioavailability ([5]; similar (high) dose in a non-aqueous vehicle)
 |  |  | O=C1N(Cc2ccc(CO)cc2)C(Cc2ccccc2)C(O)C(O)C(Cc2ccccc2)N1Cc1ccc(CO)cc1 (stereo not shown) [Example 5U] | 10 (≈ 17.6 µM) | < 10 | < 10 | 5 | 45 | low oral bioavailability | 5 ± 2 | 50 ± 20 | relatively poor oral bioavailability
>20000 | readily convert to parent 5U |  | CN(C)CC(=O)OCc1ccc(CN2C(=O)N(Cc3ccc(COC(=O)CN(C)C)cc3)[C@H](Cc3ccccc3)[C@H](O)[C@@H](O)[C@H]2Cc2ccccc2)cc1 [Example 29C] |  |  |  |  |  |  |  |  | 
 | readily convert to parent 5U | approximately 2 fold | CN(C)CC(=O)OCc1ccc(CN2C(=O)N(Cc3ccc(COC(=O)CN(C)C)cc3)[C@H](Cc3ccccc3)[C@H](O)[C@@H](O)[C@H]2Cc2ccccc2)cc1.Cl [Example 29E] |  |  |  |  |  |  |  |  | 
